How the values were obtained:
[1] = system: MCF7 cells; test: Northern blot of MCF7 cells in the presence and absence of β-estradiol; format: cell-based, human; conditions: 1×10^-8 M β-estradiol for three days
Description: All cell lines were obtained from American Type Culture Collection (ATCC, Rockville, Md.) and were maintained as described previously. MCF7 cells that were induced with estradiol were grown under normal conditions until approximately 25% confluence. The media was subsequently changed to phenol-red free Minimal Essential Media (Gibco BRL, Gaithersburg, Md.) supplemented with 10% charcoal-stripped fetal calf serum, 10 U/ml penicillin G, 10 μg/ml streptomycin, 6 ng/ml bovine insulin for six days. MCF7 cells were induced with 1×10^-8 M water soluble β-estradiol (Sigma Chemical Company, St. Louis, Mo.) for three days.
Poly(A+)mRNA was isolated from breast carcinoma cell lines and analyzed by Northern blot as described previously (Carmeci et al. (1997) Genomics 45, 607-617). The GATA-3 cDNA probe was prepared by reverse transcribing 1.6 μg of MCF7 poly(A)+RNA using the GeneAmp® RNA PCR Kit (Perkin Elmer, Foster City, Calif.) as per the manufacturer's recommendations. Resultant cDNA was used as template to PCR amplify (GeneAmp® PCR Kit, Perkin Elmer) the region of the GATA-3 cDNA from +530 to +1712 (numbered in accordance with the GATA-3 cDNA sequence, Genbank accession number X55122) using primers GATA3-2 (SEQ ID NO:3) [5-[…]-3'] and GATA3-4 (SEQ ID NO:4) [5'-[…]-3']. […]

[2] = system: free GATA-3; test: Gel retardation assay, free GATA-3 binding to GATA DNA probe; set-up: species or system human; conditions: 1 μM, gel shift
Text: Acids Res 11, 1475-1489. […] (Santa Cruz Biotechnology) was also used as a competitor.

[3] = target: GATA-3 (TnT-GATA3) (Homo sapiens, UniProt P23771 P23771:1-443); test: competition; mutant cold competitor at 100-fold molar excess; text states only appropriate sequence specificity by gel shift competition; conditions: tags: none stated
Description: Acids Res* 11, 1475–1489. […] (Santa Cruz Biotechnology) was also used as a competitor.
It was important to determine if functional GATA-3 protein is expressed in these cells. The GATA-3 cDNA was cloned from the MCF7 cells and GATA-3 protein was expressed using in vitro transcription/translation. […] MCF7 nuclear extracts were also tested for GATA binding activity.

GATA-3 (TnT-GATA3), sequence (P23771 whole entry, one chain of several): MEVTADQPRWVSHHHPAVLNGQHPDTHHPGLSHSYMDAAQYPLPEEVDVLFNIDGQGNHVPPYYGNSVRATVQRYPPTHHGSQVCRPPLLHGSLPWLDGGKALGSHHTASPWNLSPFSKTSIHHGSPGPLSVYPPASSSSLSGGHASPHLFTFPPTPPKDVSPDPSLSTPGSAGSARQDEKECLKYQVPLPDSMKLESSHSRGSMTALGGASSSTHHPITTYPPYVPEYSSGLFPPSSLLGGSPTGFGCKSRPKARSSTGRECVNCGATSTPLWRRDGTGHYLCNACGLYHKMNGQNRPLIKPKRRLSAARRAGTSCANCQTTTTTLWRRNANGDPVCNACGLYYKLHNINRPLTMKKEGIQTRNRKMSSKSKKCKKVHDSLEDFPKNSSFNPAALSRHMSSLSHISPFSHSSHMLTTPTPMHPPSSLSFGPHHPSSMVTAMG

`C[C@]12CC[C@@H]3c4ccc(O)cc4CC[C@H]3[C@@H]1CC[C@@H]2O` [estradiol, β-estradiol] was tested, and the “expression of GATA-3 mRNA” value [1] was “did not change” and the “pS2 expression (mRNA)” value [1] was “induced”.

For `CC/C(=C(\c1ccccc1)c1ccc(OCCN(C)C)cc1)c1ccccc1` [tamoxifen], the “interference with free GATA-3 binding DNA” value [2] was “does not interfere with free GATA-3 binding DNA”.

B1: mutant GATA oligonucleotide (dsDNA)
DNA 1: CACTTCTTAACAGAAAGTCTTAACTCT
DNA 2: AGAGTTAAGACTTTCTGTTAAGAAGTG
modifications: [NONE]
B1: no binding [3].

From patent publication US6107034A, “GATA-3 expression in human breast carcinoma” (The Board of Trustees of the Leland Stanford Junior …, priority 1998, dated 2000)
